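In this assay, cells in 96-well plates receive the compound at five concentrations for 48 hours. Endpoints are linearly interpolated between the surrounding concentrations. Here, GI50 denotes the concentration required for 50% inhibition of growth. The concentration for full growth arrest is given as TGI.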
How the values were obtained:
Experiment in all cases: NCI tumour cell line growth inhibition, 48 h
OVCAR-5 ovarian = system: OVCAR-5 ovarian
M14 melanoma = system: M14 melanoma
NCI-H23 lung = system: NCI-H23 lung
SF-539 CNS = system: SF-539 CNS
MOLT-4 leukemia = system: MOLT-4 leukemia
HT29 colon = system: HT29 colon
A498 renal = system: A498 renal
RXF 393 renal = system: RXF 393 renal
U251 CNS = system: U251 CNS
UO-31 renal = system: UO-31 renal

| SMILES | TGI (OVCAR-5 ovarian) | TGI (M14 melanoma) | TGI (NCI-H23 lung) | TGI (SF-539 CNS) | TGI (MOLT-4 leukemia) | TGI (HT29 colon) | TGI (A498 renal) | TGI (RXF 393 renal) | TGI (U251 CNS) | TGI (UO-31 renal) | GI50 (OVCAR-5 ovarian) | GI50 (M14 melanoma) | GI50 (NCI-H23 lung) | GI50 (SF-539 CNS) | GI50 (MOLT-4 leukemia) | GI50 (HT29 colon) | GI50 (A498 renal) | GI50 (RXF 393 renal) | GI50 (U251 CNS) | GI50 (UO-31 renal) |
| --- | --- | --- | --- | --- | --- | --- | --- | --- | --- | --- | --- | --- | --- | --- | --- | --- | --- | --- | --- | --- |
| COc1cnc2cc(C(=O)O)c3ccccc3c2c1 | > 100 µM | > 100 µM | > 100 µM | > 100 µM | > 100 µM | > 100 µM | > 100 µM | > 100 µM | > 100 µM | > 100 µM | – | – | – | – | – | – | – | – | – | – |
| COc1cc(NC(=O)Nc2cnc(Nc3ccc(N4CCOCC4)cc3)nc2Oc2cccc(OC)c2)cc(OC)c1 | 41.6 µM | 9.2 µM | 11.8 µM | 1.75 µM | > 50 µM | 3.15 µM | 2.97 µM | 1.82 µM | 5.05 µM | 6.74 µM | 6.49 µM | 1850 nM | 1820 nM | 884 nM | 36800 nM | 1100 nM | 1300 nM | 887 nM | 1630 nM | 1300 nM |
| O=C(Cc1ccccc1)NN1C(=O)/C(=C\c2ccc(O)cc2)SC1=Nc1ccccc1 | > 100 µM | > 100 µM | > 100 µM | > 100 µM | > 100 µM | > 100 µM | > 100 µM | > 100 µM | > 100 µM | > 100 µM | – | – | – | – | – | – | – | – | – | – |
| Oc1ccc(Cl)cc1Cc1cc(Cl)ccc1O | 19.6 µM | 10.5 µM | 5.79 µM | 13.8 µM | 8.83 µM | 10.6 µM | 9.84 µM | 8.04 µM | 11.6 µM | 6.48 µM | 4.79 µM | 3310 nM | 2040 nM | 3800 nM | 2860 nM | 3550 nM | 1980 nM | 2380 nM | 2320 nM | 2060 nM |
| CC(C)C(=O)Oc1cc2c(=O)oc3c(OC(=O)C(C)C)c(OC(=O)C(C)C)cc4c(=O)oc(c1OC(=O)C(C)C)c2c34 | > 100 µM | > 100 µM | > 100 µM | > 100 µM | > 100 µM | > 100 µM | > 100 µM | > 100 µM | > 100 µM | > 100 µM | – | – | – | – | – | – | – | – | – | – |
| O=C1C=CC2(C=C1)C[C@H](NC(=O)C(F)(F)F)C(=O)O2 | > 100 µM | > 100 µM | 69.4 µM | > 100 µM | > 100 µM | > 100 µM | > 100 µM | > 100 µM | > 100 µM | > 100 µM | – | – | – | – | – | – | – | – | – | – |
| Cc1cc(Cl)cc2c1NC(=O)C2=O (tested in a mixture with another compound) | > 100 µM | > 100 µM | > 100 µM | > 100 µM | 54.7 µM | > 100 µM | > 100 µM | > 100 µM | > 100 µM | > 100 µM | – | – | – | – | – | – | – | – | – | – |
| Cc1cc(Cl)ccc1NS(=O)(=O)c1ccc(-c2cnc(C3CC3)o2)cc1 | 17.2 µM | 15.3 µM | 17.5 µM | 2.51 µM | > 44.2 µM | 11.8 µM | 0.841 µM | 17.7 µM | 15.7 µM | 16.9 µM | 0.572 µM | 254 nM | 556 nM | 215 nM | 405 nM | 267 nM | 91.5 nM | 268 nM | 384 nM | 619 nM |

Source: PubChem BioAssay (NCI)
